These compounds were tested against rBIIa/beta 1 sodium channels (Rattus norvegicus, UniProt P04775) (assay: Electrophysiological assay, two-electrode voltage clamp in Xenopus oocytes). Settings: apparent inhibition constant from single point inhibition data; inactivated-state voltage protocol; channels expressed in Xenopus oocytes; read-out: RBIIA/β1 Ki.
Format: cell-based
Experimental: Electrophysiological Assay:
Electrophysiological Assay was used to measure potencies of compounds of the present invention rBIIa/beta 1 sodium channels expressed in Xenopus oocytes.
Preparation of cRNA encoding cloned rat brain type IIa (rBIIa) and beta 1 (β1): cDNA clones encoding the rat brain beta 1 subunit were cloned in house using standard methods, and mRNA were prepared by standard methods. mRNA encoding rBIIa was provided by Dr. A. Golden (UC Irvine). The mRNAs were diluted and stored at −80° C. in 1 μL aliquots until injection.
Preparation of oocytes: Mature female Xenopus laevis were anaesthetized (20-40 min) using 0.15% 3-aminobenzoic acid ethyl ester (MS-222) following established procedures (Woodward, R. M., et al., Mol. Pharmacol. 41:89-103 (1992)).
Two to six ovarian lobes were surgically removed. Oocytes at developmental stages V-VI were dissected from the ovary, oocytes were still surrounded by enveloping ovarian tissues. Oocytes were defolliculated on the day of surgery by treatment with collagenase (0.5 mg/mL Sigma Type I, or Boehringer Mannheim Type A, for 0.5-1 hr). Treated oocytes were vortexed to dislodge epithelia, washed repeatedly and stored in Barth's medium containing 88 mM NaCl, 1 mM KCl, 0.41 mM CaCl2, 0.33 mM Ca(NO3)2, 0.82 mM MgSO4, 2.4 mM NaHCO3, 5 mM HEPES, pH 7.4 adjusted with 0.1 mg/mL gentamycin sulphate.
Micro-injection of oocytes: Defolliculated oocytes were micro-injected using a Nanoject injection system (Drummond Scientific Co., Broomall, Pa.). Injection pipettes were beveled to minimize clogging. Tip diameter of injection pipettes was 15-35 μm. Oocytes were microinjected with approximately 50 nL 1:10 ratio mixtures of cRNAs for rBIIa and beta 1 respectively.
Electrophysiology: Membrane current responses were recorded in frog Ringer solution containing 115 mM NaCl, 2 mM KCl, 1.8 mM CaCl2, 5 mM HEPES, pH 7.4. Electrical recordings were made using a conventional two-electrode voltage clamp (Dagan TEV-200) over periods ranging between 1-7 days following injection. The recording chamber was a simple gravity fed flow-through chamber (volume […] depending on adjustment of aspirator). Oocytes were placed in the recording chamber, impaled with electrodes and continuously perfused (5-15 mL min^−1) with frog Ringer's solution. The tested compounds were applied by bath perfusion.
Voltage protocols for evoking sodium channel currents: The standard holding potential for whole oocyte clamp was −120 mV. Standard current-voltage relationships were elicited by 40 ms depolarizing steps starting from −60 mV to +50 mV in 10 mV increments. Peak currents were measured as the maximum negative current after depolarizing voltage steps. The voltage from maximum current response was noted and used for the next voltage protocol.
The purpose was to find compounds that are state dependent modifiers of neuronal sodium channels. Preferably, the compounds have a low affinity for the rested/closed state of the channel, but a high affinity for the inactivated state. The following voltage protocol was used to measure a compounds affinity for the inactivated state. Oocytes were held at a holding potential of −120 mV. At this membrane voltage, nearly all of the channels would be in the closed state. Then a 4 second depolarization was made to the voltage where the maximum current was elicited. At the end of this depolarization, nearly all the channels would be in the inactivated state. A 10 ms hyperpolarizing step was then made in order to remove some channels from the inactivated state. A final depolarizing test pulse was used to assay the sodium current after this prolonged depolarization (see analysis below). Sodium currents were measured at this test pulse before and after the application of the tested compound. Data was acquired using pClamp 8.0 software and analyzed with clampfit software (Axon instruments). […]

How did the Ki turn out when `NC(=O)c1ccc(-c2ccc(Oc3ccccc3)cc2)nc1` [2-(4-Phenoxyphenyl)pyridine-5-carboxamide] was run?
The Ki was 14.6 µM.

How did the Ki turn out when `NC(=O)c1ccc(-c2ccc(OC(F)(F)F)cc2)nc1` [2-(4-Trifluoromethoxyphenyl)pyridine-5-carboxamide] was run?
Its Ki is 34.2 µM.

`CSc1ccc(-c2cncc(C(N)=O)c2)cc1` [5-(4-Thiomethylphenyl)pyridine-3-carboxamide] was tested. Which Ki did it give?
The Ki was 29 µM.

`NC(=O)c1ccnc(-c2ccc(-c3ccccc3)cc2)c1` [2-(2-phenylphenyl)pyridine-4-carboxamide, 2-(4-Phenylphenyl)pyridine-4-carboxamide] was tested. Which Ki did it give?
Its Ki is 24.9 µM.

Which Ki does the source give for `O=C(NCCN1CCCCC1)c1cncc(-c2ccc(Oc3ccc(F)cc3)cc2)c1` [5-[4-(4-fluorophenoxy)phenyl]pyridine 3-carboxylic acid 2-(N-piperidinyl)ethylamide] here?
The Ki was 0.78 µM.

Which Ki does the source give for `CCOc1ccc(-c2cc(C(N)=O)ccn2)cc1` [2-(4-ethoxyphenyl)pyridine-4-carboxamide, 2-(4-Ethoxyphenyl)pyridine-4-carboxamide] here?
The Ki was 14.7 µM.

How did the Ki turn out when `CCOc1ccc(-c2cncc(C(N)=O)c2)cc1` [5-(4-ethoxyphenyl)pyridine-3-carboxamide, 5-(4-Ethoxyphenyl)pyridine-3-carboxamide] was run?
Its Ki is 36.2 µM.

With `O=C(NCCN1CCCCC1)c1ccc(-c2ccc(Oc3ccc(F)cc3)cc2)nc1` [2-[4-(4-Fluorophenoxy)phenyl]pyridine 5-carboxylic acid 2-(N-piperidinyl)ethylamide] as the compound, how does the Ki read?
Its Ki is 0.95 µM.

For `CCCCc1ccc(-c2cncc(C(N)=O)c2)cc1` [5-(4-n-Butylphenyl)pyridine-3-carboxamide], which Ki is on record?
The Ki was 11.1 µM.

How did the Ki turn out when `NC(=O)c1cncc(-c2ccc3ccccc3c2)c1` [5-(2-naphthyl)pyridine-3-carboxamide, 5-(2-Naphthyl)pyridine-3-carboxamide] was run?
Its Ki is 35.1 µM.

How did the Ki turn out when `NC(=O)c1ccc(-c2ccc(-c3ccccc3)cc2)nc1` [2-(2-phenylphenyl)pyridine-5-carboxamide, 2-(4-Phenylphenyl)pyridine-5-carboxamide] was run?
The Ki was 40.7 µM.

For `NC(=O)c1cncc(-c2ccc(Oc3ccccc3)cc2)c1` [5-(4-Phenoxyphenyl)pyridine-3-carboxamide], which Ki is on record?
The Ki was 5.43 µM.

`CC(C)(C)c1ccc(-c2cncc(C(N)=O)c2)cc1` [5-(4-tert-Butylphenyl)pyridine-3-carboxamide] was tested. Which Ki did it give?
Its Ki is 18.6 µM.

How did the Ki turn out when `NC(=O)c1ccc(-c2ccc3ccccc3c2)nc1` [2-(2-naphthyl)pyridine-5-carboxamide, 2-(2-Naphthyl)pyridine-5-carboxamide] was run?
Its Ki is 28.1 µM.

`NC(=O)c1cncc(-c2ccc(OC(F)(F)F)cc2)c1` [5-(4-Trifluoromethoxyphenyl)pyridine-3-carboxamide] was tested. Which Ki did it give?
The Ki was 25 µM.

`CCCCc1ccc(-c2ccc(C(N)=O)cn2)cc1` [2-(4-n-Butylphenyl)pyridine-5-carboxamide] was tested. Which Ki did it give?
The Ki was 24.5 µM.

For `CCOc1ccc(-c2ccc(C(N)=O)cn2)cc1` [2-(4-ethoxyphenyl)pyridine-5-carboxamide, 2-(4-Ethoxyphenyl)pyridine-5-carboxamide], which Ki is on record?
Its Ki is 29.7 µM.

How did the Ki turn out when `CC(C)c1ccc(-c2cc(C(N)=O)ccn2)cc1` [2-(4-i-Propylphenyl)pyridine-4-carboxamide] was run?
The Ki was 39.2 µM.

Which Ki does the source give for `CC(C)(C)c1ccc(-c2ccc(C(N)=O)cn2)cc1` [2-(4-tert-Butylphenyl)pyridine-5-carboxamide] here?
The Ki was 32.3 µM.

How did the Ki turn out when `NC(=O)c1ccnc(-c2ccc(Oc3ccccc3)cc2)c1` [2-(4-Phenoxyphenyl)pyridine-4-carboxamide] was run?
The Ki was 22.3 µM.

Which Ki does the source give for `NC(=O)c1ccc(-c2ccc(C(F)(F)F)cc2)nc1` [2-(4-Trifluoromethylphenyl)pyridine-5-carboxamide] here?
The Ki was 24.7 µM.

For `NC(=O)c1cncc(-c2ccc(C(F)(F)F)cc2)c1` [5-(4-Trifluoromethylphenyl)pyridine-3-carboxamide], which Ki is on record?
Its Ki is 23 µM.

With `COc1ccc(-c2cc(C(N)=O)ccn2)cc1` [2-(4-Methoxyphenyl)pyridine-4-carboxamide] as the compound, how does the Ki read?
Its Ki is 6.17 µM.

With `COc1ccc(-c2cncc(C(N)=O)c2)cc1` [5-(4-Methoxyphenyl)pyridine-3-carboxamide] as the compound, how does the Ki read?
The Ki was 54.4 µM.

`CC(C)(C)c1ccc(-c2cc(C(N)=O)ccn2)cc1` [2-(4-tert-Butylphenyl)pyridine-4-carboxamide] was tested. Which Ki did it give?
Its Ki is 53.1 µM.

`COc1ccc(-c2ccc(C(N)=O)cn2)cc1` [2-(4-Methoxyphenyl)pyridine-5-carboxamide] was tested. Which Ki did it give?
The Ki was 44.6 µM.

Which Ki does the source give for `CSc1ccc(-c2ccc(C(N)=O)cn2)cc1` [2-(4-Thiomethylphenyl)pyridine-5-carboxamide] here?
The Ki was 35.6 µM.

For `NC(=O)c1ccnc(-c2ccc(OC(F)(F)F)cc2)c1` [2-(4-Trifluoromethoxyphenyl)pyridine-4-carboxamide], which Ki is on record?
Its Ki is 24.7 µM.

`NC(=O)c1cccnc1-c1ccc(Oc2ccc(F)cc2)cc1` [2-[4-(4-Fluorophenoxy)phenyl]pyridine-3-carboxamide] was tested. Which Ki did it give?
The Ki was 13.6 µM.

How did the Ki turn out when `CCCCc1ccc(-c2cc(C(N)=O)ccn2)cc1` [2-(4-n-Butylphenyl)pyridine-4-carboxamide] was run?
Its Ki is 32.9 µM.

With `NC(=O)c1ccnc(-c2ccc(Oc3ccc(F)cc3)cc2)c1` [2-[4-(4-Fluorophenoxy)phenyl]pyridine-4-carboxamide] as the compound, how does the Ki read?
The Ki was 6.91 µM.
